Data: US20220000111A1, “METHODS OF INCREASING ALMOND YIELD” (Valent U.S.A. LLC, priority 2020, published 2022)

Columns and labels:
Assay type in all cases: in vivo
almond trees [1] = experiment: Example 2: foliar AVG-HCl application at full bloom or after, nonpareil and carmel almonds; conditions: for % Kernel Doubling / Nutmeat Yield / Nuts/Tree: 124 g/Ha
Description: 2 sets of AVG applications were performed on 2 varieties of almonds, nonpareil and […]. For the two sets of applications performed AVG-HCl was applied to almond trees either at full bloom or after full bloom, specifically at 22, 26, 29 or 33 days after full bloom (“DAFB”).

almond trees [2] = experiment: Example 1: foliar AVG-HCl application to almond trees, 2018-2019, nutmeat yield and kernel doubling at harvest; conditions: for percentage of shells harvested that contained two nut kernels, Average / yield at harvest of almond nutmeat, Average: average of trials
Description: […] of AVG applications were performed over a 2-year period. Each set of applications included a set of untreated control (“UTC”) trees. For the two sets of applications performed during the 2018 calendar year AVG-HCl was applied to almond trees either between 10% and full bloom (i.e. bloom) or between 6-7 weeks following full bloom (i.e. post-bloom). For the three sets of applications performed during the 2019 calendar year an additional application was performed as follows: 3-4 weeks post-bloom in combination with 6-7 weeks post-bloom.

almond trees [3] = experiment: Example 3: foliar AVG-HCl application at full bloom or after, nonpareil and carmel almonds; conditions: for % Kernel Doubling / Nutmeat Yield / Nuts/Tree: 124 g/Ha
Description: 2 sets of AVG applications were performed on 2 varieties of almonds, nonpareil and […]. For the two sets of applications performed AVG-HCl was applied to almond trees either at full bloom or after full bloom, specifically 15, 22, 26, 32, 36 or 38 DAFB.

almond trees [4] = experiment: Example 4: foliar AVG-HCl application to nonpareil almonds at Newman and Sutter, 2020; conditions: for percentage of shells harvested that contained two nut kernels / yield at harvest of almond nutmeat: nonpareil, 124 g/Ha
Description: 2 sets of AVG applications were performed on nonpareil almonds at Newman, Calif. and Sutter, Calif. in 2020. Each set of applications included a set of untreated control (“UTC”) trees. AVG-HCl was applied to almond trees either at 50% bloom (i.e. bloom), shuck split, or 7 days following shuck split.

[5] = 3-4 weeks Post-bloom & 6-7 weeks Post-bloom, 2 apps, 62 g/Ha each
[6] = 3-4 weeks Post-bloom & 6-7 weeks Post-bloom, 2 apps, 62 g/Ha each, trial 2019-1
[7] = 3-4 weeks Post-bloom & 6-7 weeks Post-bloom, 2 apps, 62 g/Ha each, trial 2019-2
[8] = 3-4 weeks Post-bloom & 6-7 weeks Post-bloom, 2 apps, 62 g/Ha each, trial 2019-3
[9] = 6-7 weeks Post-bloom, 1 app, 124 g/Ha
[10] = 6-7 weeks Post-bloom, 1 app, 124 g/Ha, trial 2018-1 (second column)
[11] = 6-7 weeks Post-bloom, 1 app, 124 g/Ha, trial 2019-1
[12] = 6-7 weeks Post-bloom, 1 app, 124 g/Ha, trial 2019-2
[13] = 6-7 weeks Post-bloom, 1 app, 124 g/Ha, trial 2019-3
[14] = Bloom, 1 app, 124 g/Ha, trial 2018-1 (second column)
[15] = Bloom, 1 app, 124 g/Ha, trial 2019-1
[16] = Bloom, 1 app, 124 g/Ha, trial 2019-2
[17] = Bloom, 1 app, 124 g/Ha, trial 2019-3
[18] = Newman, 7-days post shuck split
[19] = Sutter, 7-days post shuck split

In the case of NCCO/C=C/[C@H](N)C(=O)O (stereo in doubt) [AVG, [S]-trans-2-amino-4-(2-aminoethoxy)-3-butenoic acid], the “nutmeat yield, in words” value (almond trees [1]; application during bloom or following full bloom, nonpareil and carmel (Tables 3 and 4)) is reported as “increases nutmeat yield”, the “kernel doubling, in words” value (almond trees [1]; application during bloom, nonpareil and carmel (Tables 3 and 4)) is reported as “statistically significant increase in kernel doubling” and the “kernel doubling, in words” value (almond trees [1]; application post-bloom, nonpareil and carmel (Tables 3 and 4)) is reported as “did not result in a statistically significant increase in kernel doubling”. For the same compound, the “kernel doubling, in words” value (almond trees [2]; application during bloom (Table 2)) was “statistically significant increase in kernel doubling”, the “nutmeat yield, in words” value (almond trees [2]; application during bloom, versus untreated control (Table 1)) was “increases nutmeat yield over untreated control” and the “kernel doubling, in words” value (almond trees [2]; application post-bloom (Table 2)) was “did not result in a statistically significant increase in kernel doubling”. For the same compound, the “nutmeat yield, in words” value (almond trees [2]; application post-bloom, versus bloom treatment (Table 1)) was “greater increase in nutmeat yield than that obtained when treating during bloom”, the “nutmeat yield, in words” value (almond trees [3]; application during bloom or following full bloom, nonpareil and carmel (Tables 5 and 6)) was “increases nutmeat yield” and the “kernel doubling, in words” value (almond trees [3]; application during bloom, nonpareil and carmel (Tables 5 and 6)) was “statistically significant increase in kernel doubling”. For the same compound, the “kernel doubling, in words” value (almond trees [3]; application post-bloom, nonpareil and carmel (Tables 5 and 6)) was “did not result in a statistically significant increase in kernel doubling”, the “nutmeat yield, in words” value (almond trees [4]; application during bloom, versus untreated control (Table 7)) was “increases nutmeat yield over untreated control” and the “kernel doubling, in words” value (almond trees [4]; application during bloom, Sutter, Calif. trial (Table 8)) was “statistically significant increase in kernel doubling”. For the same compound, the “kernel doubling, in words” value (almond trees [4]; application post-bloom (Table 8)) was “did not result in a statistically significant increase in kernel doubling” and the “nutmeat yield, in words” value (almond trees [4]; application post-bloom, versus bloom treatment (Table 7)) was “greater increase in nutmeat yield than that obtained when treating during bloom”.

In the case of Cl.NCCO/C=C/[C@H](N)C(=O)O [AVG-HCl], the “% Kernel Doubling” value (almond trees [1]; carmel, 22 DAFB) is reported as 5.6 bc %, the “Nutmeat Yield” value (almond trees [1]; carmel, 22 DAFB) is reported as 7.94 kg/tree and the Nuts/Tree (almond trees [1]; carmel, 22 DAFB) is reported as 8499 b nuts per tree. For the same compound, the “% Kernel Doubling” value (almond trees [1]; carmel, 26 DAFB) was 3.7 c %, the “Nutmeat Yield” value (almond trees [1]; carmel, 26 DAFB) was 8.50 kg/tree and the Nuts/Tree (almond trees [1]; carmel, 26 DAFB) was 9676 a nuts per tree. For the same compound, the “% Kernel Doubling” value (almond trees [1]; carmel, Full Bloom) was 7.6 a %, the “Nutmeat Yield” value (almond trees [1]; carmel, Full Bloom) was 7.04 kg/tree and the Nuts/Tree (almond trees [1]; carmel, Full Bloom) was 7039 b nuts per tree. For the same compound, the “% Kernel Doubling” value (almond trees [1]; nonpareil, 29 DAFB) was 1.4 b %, the “Nutmeat Yield” value (almond trees [1]; nonpareil, 29 DAFB) was 8.64 a kg/tree and the Nuts/Tree (almond trees [1]; nonpareil, 29 DAFB) was 8435 a nuts per tree. For the same compound, the “% Kernel Doubling” value (almond trees [1]; nonpareil, 33 DAFB) was 0.4 b %, the “Nutmeat Yield” value (almond trees [1]; nonpareil, 33 DAFB) was 7.89 ab kg/tree and the Nuts/Tree (almond trees [1]; nonpareil, 33 DAFB) was 8350 a nuts per tree. The “% Kernel Doubling” value (almond trees [1]; nonpareil, Full Bloom) was 3.8 a %, the “Nutmeat Yield” value (almond trees [1]; nonpareil, Full Bloom) was 8.03 ab kg/tree and the Nuts/Tree (almond trees [1]; nonpareil, Full Bloom) was 8153 ab nuts per tree. The “percentage of shells harvested that contained two nut kernels, Average” value (from here on “percentage … Average”) (almond trees [2]; [5]) was 1.55 b %, the “yield at harvest of almond nutmeat, Average” value (“yield at harvest … Average” for short) (almond trees [2]; [5]) was 1229 a kilograms per hectare and the “percentage of shells harvested that contained two nut kernels” value (almond trees [2]; [6]) was 1.3 b %. The “yield at harvest of almond nutmeat” value (almond trees [2]; [6]) was 1164 kilograms per hectare, the “percentage of shells harvested that contained two nut kernels” value (almond trees [2]; [7]) was 1.5 abc % and the “yield at harvest of almond nutmeat” value (almond trees [2]; [7]) was 1698 a kilograms per hectare. For the same compound, the “percentage of shells harvested that contained two nut kernels” value (almond trees [2]; [8]) was 1.9 b %, the “yield at harvest of almond nutmeat” value (almond trees [2]; [8]) was 825 b kilograms per hectare and the “percentage … Average” value (almond trees [2]; [9]) was 2.11 b %. The “yield at harvest … Average” value (almond trees [2]; [9]) was 1033 ab kilograms per hectare, the “yield at harvest of almond nutmeat” value (almond trees [2]; 6-7 weeks Post-bloom, 1 app, 124 g/Ha, trial 2018-1 (first column)) was 721 kilograms per hectare and the “percentage of shells harvested that contained two nut kernels” value (almond trees [2]; [10]) was 6.6 b %. The “yield at harvest of almond nutmeat” value (almond trees [2]; [10]) was 1345 a kilograms per hectare, the “percentage of shells harvested that contained two nut kernels” value (almond trees [2]; [11]) was 2.5 ab % and the “yield at harvest of almond nutmeat” value (almond trees [2]; [11]) was 1168 kilograms per hectare. The “percentage of shells harvested that contained two nut kernels” value (almond trees [2]; [12]) was 1.08 bc %, the “yield at harvest of almond nutmeat” value (almond trees [2]; [12]) was 1220 b kilograms per hectare and the “percentage of shells harvested that contained two nut kernels” value (almond trees [2]; [13]) was 0.7 bc %. For the same compound, the “yield at harvest of almond nutmeat” value (almond trees [2]; [13]) was 713 bc kilograms per hectare, the “percentage … Average” value (almond trees [2]; Bloom, 1 app, 124 g/Ha) was 8.62 a % and the “yield at harvest … Average” value (almond trees [2]; Bloom, 1 app, 124 g/Ha) was 1068 ab kilograms per hectare. For the same compound, the “yield at harvest of almond nutmeat” value (almond trees [2]; Bloom, 1 app, 124 g/Ha, trial 2018-1 (first column)) was 712 kilograms per hectare, the “percentage of shells harvested that contained two nut kernels” value (almond trees [2]; [14]) was 27.7 a % and the “yield at harvest of almond nutmeat” value (almond trees [2]; [14]) was 1148 b kilograms per hectare. For the same compound, the “percentage of shells harvested that contained two nut kernels” value (almond trees [2]; [15]) was 3.5 a %, the “yield at harvest of almond nutmeat” value (almond trees [2]; [15]) was 1204 kilograms per hectare and the “percentage of shells harvested that contained two nut kernels” value (almond trees [2]; [16]) was 2.92 ab %. The “yield at harvest of almond nutmeat” value (almond trees [2]; [16]) was 1198 b kilograms per hectare, the “percentage of shells harvested that contained two nut kernels” value (almond trees [2]; [17]) was 15.9 a % and the “yield at harvest of almond nutmeat” value (almond trees [2]; [17]) was 1031 a kilograms per hectare. The “% Kernel Doubling” value (almond trees [3]; carmel, 15 DAFB) was 0.4 b %, the “Nutmeat Yield” value (almond trees [3]; carmel, 15 DAFB) was 6.00 kg/tree and the Nuts/Tree (almond trees [3]; carmel, 15 DAFB) was 7271 nuts per tree. For the same compound, the “% Kernel Doubling” value (almond trees [3]; carmel, 22 DAFB) was 1.4 b %, the “Nutmeat Yield” value (almond trees [3]; carmel, 22 DAFB) was 5.40 kg/tree and the Nuts/Tree (almond trees [3]; carmel, 22 DAFB) was 7427 nuts per tree. For the same compound, the “% Kernel Doubling” value (almond trees [3]; carmel, 32 DAFB) was 0.6 b %, the “Nutmeat Yield” value (almond trees [3]; carmel, 32 DAFB) was 5.30 kg/tree and the Nuts/Tree (almond trees [3]; carmel, 32 DAFB) was 6972 nuts per tree. For the same compound, the “% Kernel Doubling” value (almond trees [3]; carmel, 38 DAFB) was 1 b %, the “Nutmeat Yield” value (almond trees [3]; carmel, 38 DAFB) was 7.00 kg/tree and the Nuts/Tree (almond trees [3]; carmel, 38 DAFB) was 8875 nuts per tree. For the same compound, the “% Kernel Doubling” value (almond trees [3]; carmel, Full Bloom) was 8.4 a %, the “Nutmeat Yield” value (almond trees [3]; carmel, Full Bloom) was 6.10 kg/tree and the Nuts/Tree (almond trees [3]; carmel, Full Bloom) was 7097 nuts per tree. The “% Kernel Doubling” value (almond trees [3]; nonpareil, 26 DAFB) was 0.8 b %, the “Nutmeat Yield” value (almond trees [3]; nonpareil, 26 DAFB) was 5.9 kg/tree and the Nuts/Tree (almond trees [3]; nonpareil, 26 DAFB) was 7636.8 nuts per tree. The “% Kernel Doubling” value (almond trees [3]; nonpareil, 36 DAFB) was 0.6 c %, the “Nutmeat Yield” value (almond trees [3]; nonpareil, 36 DAFB) was 6 kg/tree and the Nuts/Tree (almond trees [3]; nonpareil, 36 DAFB) was 7789.8 nuts per tree. The “% Kernel Doubling” value (almond trees [3]; nonpareil, Full Bloom) was 2.0 a %, the “Nutmeat Yield” value (almond trees [3]; nonpareil, Full Bloom) was 4.3 kg/tree and the Nuts/Tree (almond trees [3]; nonpareil, Full Bloom) was 5251.6 nuts per tree. For the same compound, the “percentage of shells harvested that contained two nut kernels” value (almond trees [4]; [18]) was 3.0%, the “yield at harvest of almond nutmeat” value (almond trees [4]; [18]) was 3726 a kilograms per hectare and the “percentage of shells harvested that contained two nut kernels” value (almond trees [4]; Newman, Bloom (50% bloom)) was 2.7%. The “yield at harvest of almond nutmeat” value (almond trees [4]; Newman, Bloom (50% bloom)) was 3188 c kilograms per hectare, the “percentage of shells harvested that contained two nut kernels” value (almond trees [4]; Newman, Shuck split) was 2.2% and the “yield at harvest of almond nutmeat” value (almond trees [4]; Newman, Shuck split) was 3369 b kilograms per hectare. The “percentage of shells harvested that contained two nut kernels” value (almond trees [4]; [19]) was 0.5%, the “yield at harvest of almond nutmeat” value (almond trees [4]; [19]) was 3558 ab kilograms per hectare and the “percentage of shells harvested that contained two nut kernels” value (almond trees [4]; Sutter, Bloom (50% bloom)) was 1.2%. For the same compound, the “yield at harvest of almond nutmeat” value (almond trees [4]; Sutter, Bloom (50% bloom)) was 3658 a kilograms per hectare, the “percentage of shells harvested that contained two nut kernels” value (almond trees [4]; Sutter, Shuck split) was 0.7% and the “yield at harvest of almond nutmeat” value (almond trees [4]; Sutter, Shuck split) was 3758 a kilograms per hectare.
